# Key:
# [1] = test system: HA antigen of influenza virus (strain: A/Solomon); design: species or system BALB/c mice; conditions: mouse, in vivo, sc
# [2] = Observation of administered mice for abnormality / induration at topical area; format: in vivo; conditions: mice administered with citrulline; compared with induration seen where Alum is administered
smiles,measurement,setting,value
"NC(=O)NCCCC(N)C(=O)O (centres unmarked) [citrulline, 2-amino-5-(carbamoylamino)-pentanoic acid]",adjuvant effect compared with Alum adjuvant (in words),[1],same extent as that of Alum adjuvant
same,abnormality / induration in mice administered,[2],neither abnormality nor induration

# From US10556005B2 (priority 2011, dated 2020)
